In US20250059164A1, “IRAK DEGRADERS AND USES THEREOF” (Kymera Therapeutics, Inc., priority 2023, published 2025):

Biological target: T1, IRAK4 (Homo sapiens, UniProt Q9NWZ3)
T1 construct: endogenous in cells; host or cells: OCI-LY10
T1 sequence (Q9NWZ3 1-460): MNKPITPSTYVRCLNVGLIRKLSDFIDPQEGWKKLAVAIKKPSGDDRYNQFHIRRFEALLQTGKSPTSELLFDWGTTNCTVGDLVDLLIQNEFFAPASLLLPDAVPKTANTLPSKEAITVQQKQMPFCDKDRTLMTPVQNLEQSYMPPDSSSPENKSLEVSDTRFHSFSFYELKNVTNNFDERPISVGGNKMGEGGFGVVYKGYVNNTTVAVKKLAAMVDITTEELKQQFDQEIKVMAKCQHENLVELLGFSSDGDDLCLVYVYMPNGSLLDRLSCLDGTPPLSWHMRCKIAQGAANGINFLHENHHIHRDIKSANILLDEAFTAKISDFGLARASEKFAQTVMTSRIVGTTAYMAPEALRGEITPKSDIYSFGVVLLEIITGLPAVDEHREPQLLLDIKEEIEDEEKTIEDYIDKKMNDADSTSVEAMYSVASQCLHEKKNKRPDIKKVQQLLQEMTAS
Assay: IRAK4 MSD degradation in OCI-LY10
Assay type: cell-based
Conditions: OCI-LY10 cells, 24 hrs, Meso Scale Discovery
Protocol: Degradation of IRAK4 in OCI-LY10 was quantitatively measured using Meso Scale Discovery technology. […] Compounds were then added to the assay plates with a final top concentration of 1 to 10 μM in a 1:3 dilution series with total of 8 doses. The assay plates were then incubated for 4 to 24 hours at 37° C. under 5% CO2. […] To prepare MSD assay plates (Meso Scale Discovery Catalog number L15XA-3), the plates were coated with 2 μg/mL capture antibody (mouse Anti-IRAK4 antibody [2H9], ab119942) in PBS, at 40 μL/well. […] Cell lysates were then added to MSD assay plates and the plates were incubated at room temperature for 1 hour. The plates were then washed 3 times with 150 μL/well TBST buffer and 25 μL/well primary detection antibody (rabbit Anti-IRAK4 antibody [Y279], from Abcam. Catalog number ab32511, 1 μg/mL). The assay plates were then incubated at room temperature for 1 hour, washed 3 times with 150 μL/well TBST buffer and 25 μL/well secondary detection antibody, SULFO-TAG anti-rabbit antibody were added (anti-rabbit antibody from Meso Scale Discovery, Catalog number R32AB-1, 1 μg/mL). The assay plates were then incubated at room temperature for 1 hour, washed 3 times with 150 μL/well TBST buffer, and 150 μL/well MSD reading buffer (Meso Scale Discovery catalog number R92TC-2) was added. The plates were then analyzed by a MSD reader (Meso Scale Discovery, Model Quick Plex SQ 120). The data was then analyzed by software Prism 7.0 from GraphPad and the dose-depended IRAK4 degradation were fit using a three-parameter logistic equation to calculate DC50.
The letter codes for IRAK4 DC50 include: A (<0.01 μM); B (0.01 to <0.1 μM); C (0.1 to 0.2 μM); D (>0.2 μM) and E (not tested).

Structure (SMILES) | DC50 [nM]
CN(C[C@H]1CC[C@H](c2cc3cc(NC(=O)c4cncc(C(F)(F)F)n4)ccn3n2)CC1)[C@H]1CCN(c2cccc3c2n(C)c(=O)n3C2CCC(=O)NC2=O)C[C@H]1F (single isomer, unassigned) [I-212] | 10 to 100
COc1cc2nn([C@H]3CC[C@H](CN4CC[C@@H](c5cccc6c5c(C)nn6C5CCC(=O)NC5=O)[C@H](F)C4)CC3)cc2cc1NC(=O)c1cncc(C#N)c1 (single isomer, unassigned) [I-265] | < 10
CN(C[C@H]1CC[C@H](c2cn3cc(NC(=O)c4cncc(C(F)(F)F)n4)ccc3n2)CC1)[C@H]1CCN(c2cccc3c2n(C)c(=O)n3C2CCC(=O)NC2=O)C[C@H]1F (single isomer, unassigned) [I-285] | < 10
COc1ccc2c(c1N1CC[C@H](N(C)C[C@H]3CC[C@H](n4cc(NC(=O)c5cnn6cccnc56)c(C(F)F)n4)CC3)C(F)(F)C1)n(C)c(=O)n2C1CCC(=O)NC1=O (single isomer, unassigned) [I-289] | < 10
CN(C[C@H]1CC[C@H](c2cc3cc(NC(=O)c4cncc(C(F)(F)F)n4)ccn3n2)CC1)[C@@H]1CCN(c2cccc3c2n(C)c(=O)n3C2CCC(=O)NC2=O)C[C@H]1F (single isomer, unassigned) [I-291] | > 200
CN(C[C@H]1CC[C@H](c2cc3cc(NC(=O)c4cncc(C(F)(F)F)n4)ccn3n2)CC1)[C@H]1CCN(c2cccc3c2n(C)c(=O)n3C2CCC(=O)NC2=O)C[C@@H]1F (single isomer, unassigned) [I-292] | 10 to 100
CN(C[C@H]1CC[C@H](c2nc3cc(C(C)(C)O)c(NC(=O)c4cncc(C(F)(F)F)n4)cc3o2)CC1)[C@H]1CCN(c2cccc3c2n(C)c(=O)n3C2CCC(=O)NC2=O)C[C@@H]1F (single isomer, unassigned) [I-298] | < 10

Next, values leading:

DC50 [nM] | Structure (SMILES)
< 10 | Cn1c(=O)n([C@@H]2CCC(=O)NC2=O)c2cccc(N3CCC4(CCN(C[C@H]5CC[C@H](n6cc7cc(NC(=O)c8cncc(C#N)c8)c(C(C)(C)O)cc7n6)CC5)CC4(F)F)CC3)c21 (single isomer, unassigned) [I-224]
< 10 | Cn1c(=O)n([C@H]2CCC(=O)NC2=O)c2cccc(N3CCC4(CCN(C[C@H]5CC[C@H](n6cc7cc(NC(=O)c8cncc(C#N)c8)c(C(C)(C)O)cc7n6)CC5)CC4(F)F)CC3)c21 (single isomer, unassigned) [I-225]
< 10 | Cn1nc([C@@H]2CCC(=O)NC2=O)c2cccc([C@@H]3CCN(C[C@H]4CC[C@H](n5cc6cc(NC(=O)c7cncc(C#N)c7)c(C(C)(C)O)cc6n5)CC4)CC3(F)F)c21 (single isomer, unassigned) [I-230]
< 10 | Cn1c(=O)n([C@H]2CCC(=O)NC2=O)c2ccc(F)c([C@@H]3CCN(C[C@H]4CC[C@H](n5cc6cc(NC(=O)c7cncc(C#N)c7)c(C(C)(C)O)cc6n5)CC4)CC3(F)F)c21 (single isomer, unassigned) [I-232]
< 10 | COc1ccc2c(c1N1CC3(CCN(C[C@H]4CC[C@H](n5cc6cc(NC(=O)c7cncc(C#N)c7)c(C(C)(C)O)cc6n5)CC4)CC3(F)F)C1)n(C)c(=O)n2[C@H]1CCC(=O)NC1=O (single isomer, unassigned) [I-234]
< 10 | COc1ccc2c(c1N1CC3(CCN(C[C@H]4CC[C@H](n5cc6cc(NC(=O)c7cncc(C#N)c7)c(C(C)(C)O)cc6n5)CC4)CC3(F)F)C1)n(C)c(=O)n2[C@@H]1CCC(=O)NC1=O (single isomer, unassigned) [I-235]
< 10 | Cn1c(=O)n([C@H]2CCC(=O)NC2=O)c2cccc([C@@H]3CCN(C[C@H]4CC[C@H](c5nc6cc(C(C)(C)O)c(NC(=O)c7cncc(C#N)c7)cc6s5)CC4)C[C@H]3F)c21 (single isomer, unassigned) [I-236]
< 10 | Cn1c(=O)n([C@@H]2CCC(=O)NC2=O)c2cccc([C@@H]3CCN(C[C@H]4CC[C@H](c5nc6cc(C(C)(C)O)c(NC(=O)c7cncc(C#N)c7)cc6s5)CC4)C[C@H]3F)c21 (single isomer, unassigned) [I-237]
